This passage reports RhoA activity and Cdc42 activity results from article PMC6776562, “Inhibition of Rac1-dependent forgetting alleviates memory deficits in animal models of Alzheimer’s disease” (Protein & Cell, 2019).

One experiment concerns RhoA. Description: RhoA activity (RhoA-GTP) by Western blot after drug administration. The class given is in vivo. Particulars: 7-month-old APP/PS1 mice; two weeks of P.O administration. Here is the method:
(§1) The hippocampal tissues from human subjects and mice were harvested and stored in a liquid nitrogen tank for biochemical assay. The tissues were homogenized in cold lysis buffer (Merck-Millipore, 20-168). The insoluble debris were removed after centrifugation at 13,000 rpm (for 10 min, at 4 °C). For GTP-bound Rac/Cdc42, lysates were incubated with GST-tagged PAK (p21-activated kinase)-PBD agarose beads (Cytoskeleton, PAK02) overnight at 4 °C. On the second day, the beads were washed three times with lysis buffer before subjecting them to SDS-PAGE (15%) and transferring them onto nitrocellulose membranes (Millipore, HATF00010). The membranes were incubated with primary antibodies (for Rac1: BD Transduction Laboratories, #610650, 1:2,000 dilution; for Cdc42, Santa Cruz Biotechnology, lot No. sc-8401, 1:500 dilution) overnight at 4 °C and with HRP-conjugated goat anti-mouse IgG (Cell Signaling Technology, #7076) for 1 h at room temperature. Intensities of the detected bands were analyzed using ImageJ software (National Institutes of Health). The total amount of Rac1 in the lysate was detected using a routine Western blot procedure. RhoA-GTP levels were measured by using the Rho-GTP monoclonal antibody (New East, lot No. 26904, Dilution: 1:1,000). […] Data information: All values are expressed as mean r SEM.
For orientation: A western blot detects proteins with antibodies after separation by electrophoresis.

The next experiment has as its system Cdc42. Description: Cdc42 activity (Cdc42-GTP) by Western blot after drug administration. The class given is in vivo. Particulars: 7-month-old APP/PS1 mice; two weeks of P.O administration. Here is the method:
as §1

On to `O=C1NN(c2ccc(Cl)c(Cl)c2)C(=O)C1=Cc1ccc(O)c(N(O)O)c1` [CS7171], for which, in the experiment on RhoA, the RhoA activity entry is reported as “did not affect”. Also, the Cdc42 activity result in the experiment with Cdc42 is “did not affect”.

With `O=S(=O)(c1ccccc1)N1CCN(Cc2ccccc2)CC1` [JKF-034], the RhoA activity entry in the experiment on RhoA is recorded as “did not affect”. Also, in the experiment on Cdc42, the Cdc42 activity result is reported as “did not affect”.
